“Also recorded” adds a separate entry of the source.
What was measured:
[1] = test system: corneal graft rejection (C57BL/6 cornea transplanted onto BALB/c mice); test: Mouse corneal graft rejection model; assay type: in vivo; details: nintedanib 0.2% solution TID for 8 weeks vs vehicle solution
Excerpt: In this example, cornea of C57BL/6 mice would be transplanted onto BALB/c mice cornea as described (Sonoda et al. Invest Ophthalmol Vis Sci. 1995 February; 36(2):427-34; Invest Ophthalmol Vis Sci. 2000 March; 41(3):790-8; Yamagami et al. Invest Ophthalmol Vis Sci. 2001 May; 42(6): 1293-8). The suture would be removed on day 7 after transplant. The mice would be divided into two groups. Group 1 would be treated with the nintedanib 0.2% solution and group 2 with the vehicle solution. Treatment would start immediately after transplant, TID for 8 weeks. The corneal opacity and graft rejection will be assessed weekly for 8 weeks as described.

[2] = test system: suture-induced neovascularization in the rabbit cornea; test: Rabbit cornea suture model of neovascularization; assay type: in vivo
Method: Topical compositions comprising 0.2% or 0.05% nintedanib in 10% 2-hydroxypropyl beta cyclodextrin in phosphate buffer solution, pH 7.4 were prepared. Thirty female Zealand White rabbits were used to perform the study. Briefly, five sutures were placed in the upper cornea of the right eye of each animal on Day 1 to induce neovascularization. The animals were treated in both eyes with either drug, vehicle or saline as described in Table 1. [table] During the study, the animals were closely observed for various ocular indications as well as general physical conditions including body weight. Ocular images were taken on days 7, 10, 12, 14, 21, 28 for analysis of hyperemia. NIH ImageJ® software was used to analyze the ocular images. Each image was opened in ImageJ®, the scale was calibrated using the ruler in the photograph and the neovascularized area on the cornea near the suture was selected by the selection tool. The area in mm^2 was calculated by measurement tool in the software, recorded in excel and the image was captured and saved. […] The results were plotted as histograms of average with standard deviation for easy comparison.

`COC(=O)c1ccc2c(c1)NC(=O)/C2=C(\Nc1ccc(N(C)C(=O)CN2CCN(C)CC2)cc1)c1ccccc1` [nintedanib, Methyl (3Z)-3-{[(4-{methyl[(4-methylpiperazin-1-yl)acetyl]amino}phenyl)amino] (phenyl)methylidene}-2-oxo-2,3-dihydro-1H-indole-6-carboxylate] was tested, and the “survival of the graft (rejection rate)” value [1] was “significantly increased survival of the graft”, the “efficacy of TID dosing compared with BID dosing” value ([2]; rabbit cornea suture model, topical ocular, TID vs BID) was “higher efficacy” and the “efficacy of 0.2% nintedanib compared with 0.05% nintedanib” value ([2]; rabbit cornea suture model, topical ocular, higher dose 0.2% vs 0.05%) was “better efficacy”. The “effect on suture-induced corneal neovascularization (area of cornea neovascularization)” value ([2]; rabbit, topical ocular 0.2% or 0.05% solution BID or TID days 8 to 15, vs vehicle, day 12 and day 14 after suture) was “reduced cornea neovascularization; also recorded: marked inhibitory effect; also recorded: strongly inhibited corneal neovascularization”.

From patent publication US12491183B2, “Compositions and methods of using nintedanib for treating ocular diseases with abnormal neovascularization” (ADS Therapeutics LLC, priority 2016, dated 2025)
